Source: ChEMBL document CHEMBL1137954, “Carbonic anhydrase inhibitors: inhibition of the tumor-associated isozyme IX with fluorine-containing sulfonamides. The first subnanomolar CA IX inhibitor discovered” (Bioorg Med Chem Lett, 2004)

Assays:
Carbonic anhydrase 9 = Carbonic anhydrase 9 (Homo sapiens, UniProt Q16790)
Description: Inhibitory activity against human carbonic anhydrase IX

Carbonic anhydrase 2 = Carbonic anhydrase 2 (Homo sapiens, UniProt P00918)
Description: Inhibitory activity against human carbonic anhydrase II

Carbonic anhydrase 1 = Carbonic anhydrase 1 (Homo sapiens, UniProt P00915)
Sequence of Carbonic anhydrase 1 (P00915 whole entry): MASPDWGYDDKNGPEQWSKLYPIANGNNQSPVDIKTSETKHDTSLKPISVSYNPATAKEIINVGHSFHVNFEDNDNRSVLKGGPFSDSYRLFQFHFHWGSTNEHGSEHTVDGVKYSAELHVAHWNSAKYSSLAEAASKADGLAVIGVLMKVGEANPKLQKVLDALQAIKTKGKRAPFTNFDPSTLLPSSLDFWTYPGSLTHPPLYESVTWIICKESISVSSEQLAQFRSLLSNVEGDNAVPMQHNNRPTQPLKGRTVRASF
Description: Inhibitory activity against human carbonic anhydrase I

Row | Ki (Carbonic anhydrase 9) | Ki (Carbonic anhydrase 2) | Ki (Carbonic anhydrase 1) | SMILES
1 | 4.3 nM | 0.7 nM | 13 nM | NS(=O)(=O)c1nnc(NS(=O)(=O)c2c(F)c(F)cc(F)c2F)s1
2 | 9.5 nM | 13 nM | 980 nM | NS(=O)(=O)c1ccc(CNC(=O)c2c(F)c(F)cc(F)c2F)cc1
3 | 9.5 nM | 38 nM | 1500 nM | NS(=O)(=O)c1ccccc1NC(=O)c1c(F)c(F)cc(F)c1F
4 | 12.6 nM | 2.1 nM | 250 nM | NS(=O)(=O)c1nnc(NC(=O)c2c(F)c(F)cc(F)c2F)s1
5 | 15.2 nM | 16 nM | 975 nM | NS(=O)(=O)c1ccc(NC(=O)c2c(F)c(F)cc(F)c2F)cc1
6 | 10.5 nM | 1.4 nM | 270 nM | Cn1nc(S(N)(=O)=O)s/c1=N\C(=O)c1c(F)c(F)cc(F)c1F
7 | 0.8 nM | 21 nM | 1700 nM | NS(=O)(=O)c1cccc(NC(=O)c2c(F)c(F)cc(F)c2F)c1
8 | 7.3 nM | 12 nM | 900 nM | NS(=O)(=O)c1ccc(CCNC(=O)c2c(F)c(F)cc(F)c2F)cc1
9 | 3.2 nM | 19 nM | 6300 nM | NS(=O)(=O)c1ccc(NS(=O)(=O)c2ccc(NC(=O)c3c(F)c(F)cc(F)c3F)cc2)cc1

Row | SMILES | Ki (Carbonic anhydrase 9) | Ki (Carbonic anhydrase 2) | Ki (Carbonic anhydrase 1)
10 | NS(=O)(=O)c1ccc(CNS(=O)(=O)c2c(F)c(F)cc(F)c2F)cc1 | 8.5 nM | 12 nM | 860 nM
11 | NS(=O)(=O)c1ccc(CCNS(=O)(=O)c2c(F)c(F)cc(F)c2F)cc1 | 7 nM | 9 nM | 750 nM
12 | NS(=O)(=O)c1ccc(CNS(=O)(=O)c2ccc(NC(=O)c3c(F)c(F)cc(F)c3F)cc2)cc1 | – | 15 nM | 6100 nM
13 | NS(=O)(=O)c1ccc(NC(=O)c2c(F)c(F)cc(F)c2F)c(Cl)c1 | 16 nM | 76 nM | 1080 nM
14 | NS(=O)(=O)c1ccc(NC(=O)c2c(F)c(F)cc(F)c2F)c(F)c1 | 24 nM | 1.5 nM | 760 nM
15 | NS(=O)(=O)c1ccc(NC(=O)c2c(F)c(F)cc(F)c2F)c(Br)c1 | 4.8 nM | 84 nM | 1870 nM
16 | NS(=O)(=O)c1ccc(CCNS(=O)(=O)c2ccc(NC(=O)c3c(F)c(F)cc(F)c3F)cc2)cc1 | 7.6 nM | 13 nM | 6000 nM
